The source made the active and inactive calls. The calls are words filed in the database; no cut-off is given here.
Assays:
[1] = test system: Human immunodeficiency virus; assay: Antiviral activity against HIV; assay type: functional, organism-based
[2] = test system: Mycobacterium tuberculosis; assay: Antimycobacterial activity against Mycobacterium tuberculosis at 12.5 ug/ml; assay type: functional

SMILES	Activity [1]	Activity [2]
Nc1nc([C@H]2[C@H](CNC(=O)c3ccc[nH]3)[C@@H](CNC(=O)c3cc(Br)c[nH]3)[C@@H]2c2c[nH]c(N)n2)c[nH]1	inactive	
Cl.Cl.Nc1ncc([C@H]2[C@H](CNC(=O)c3ccc[nH]3)[C@@H](CNC(=O)c3cc(Br)c[nH]3)[C@@H]2c2cnc(N)[nH]2)[nH]1 [MONOBROMOSCEPTRIN]		35%
Cl.Cl.Nc1ncc([C@H]2[C@H](CNC(=O)c3cc(Br)c[nH]3)[C@@H](CNC(=O)c3cc(Br)c[nH]3)[C@@H]2c2cnc(N)[nH]2)[nH]1 [SCEPTRIN HYDROCHLORIDE]		14%
Nc1nc([C@H]2[C@H](CNC(=O)c3cc(Br)c[nH]3)[C@@H](CNC(=O)c3cc(Br)c[nH]3)[C@@H]2c2c[nH]c(N)n2)c[nH]1	inactive	
Nc1ncc([C@H]2[C@H](CNC(=O)c3ccc[nH]3)[C@@H](CNC(=O)c3ccc[nH]3)[C@@H]2c2cnc(N)[nH]2)[nH]1	inactive	

Source: ChEMBL document CHEMBL1150968, “Debromosceptrin, an alkaloid from the Caribbean sponge Agelas conifera” (1998)
